Measured values from patent publication US20250277001A1, “PEPTIDE DERIVATIVES AND RELATED USES AS OREXIN AGONISTS” (CENTESSA PHARMACEUTICALS (UK) LIMITED, priority 2022, published 2025).
Where two headings read alike, the source gives them in different places. Where a SMILES comes first, the peptide text is derived from it. [ ]: non-standard residue; d: D form. The star is where a group is joined. Malonyl(2,2-Me2,histaminyl) = CC(C)(C(=O)NCCc1cnc[nH]1)C(=O)*; d(hArg) = N=C(N)NCCCC[C@@H](N)C(=O)O; Gly(NCH2CH2Ph) = O=C(O)CNCCc1ccccc1; Hyp = O=C(O)[C@@H]1C[C@@H](O)CN1; NMeN = CN[C@@H](CC(N)=O)C(=O)O; Aoc(2) = CCCCCC[C@H](N)C(=O)O; Phg = N[C@H](C(=O)O)c1ccccc1; Nle = CCCC[C@H](N)C(=O)O

Experiments:
[1] = molecular target: T1, human orexin type 1 receptor (hOX1R) (Homo sapiens, UniProt O43613); experiment: Measurement of orexin type 1 receptor agonist activity (CHO cells, FLIPR TETRA intracellular Ca2+); type: cell-based
T1 construct: expressed in transfected cells
T1 sequence (O43613 1-425): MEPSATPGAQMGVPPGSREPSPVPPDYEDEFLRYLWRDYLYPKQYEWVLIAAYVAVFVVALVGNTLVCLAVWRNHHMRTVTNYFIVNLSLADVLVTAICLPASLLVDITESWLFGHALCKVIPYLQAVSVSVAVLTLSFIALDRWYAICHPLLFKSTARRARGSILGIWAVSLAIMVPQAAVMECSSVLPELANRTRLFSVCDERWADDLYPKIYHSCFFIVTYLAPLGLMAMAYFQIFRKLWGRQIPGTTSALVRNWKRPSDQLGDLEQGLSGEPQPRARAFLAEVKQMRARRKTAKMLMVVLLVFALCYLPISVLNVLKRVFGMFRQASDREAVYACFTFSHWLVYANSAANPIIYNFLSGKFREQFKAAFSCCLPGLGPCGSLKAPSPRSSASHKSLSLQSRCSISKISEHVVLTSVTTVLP
Excerpt: (§1) In some embodiments, the assay uses cells stably expressing either human orexin type 2 or human orexin type 1 receptor. In some embodiments, the cells are obtained by inserting the Orexin receptor cDNA into pcDNA3.1(+) plasmid vector, identifying clones by G418 drug resistance selection, and/or growing a single clone for OX2R-CHO and OX1R-CHO in bulk. In some embodiments, the assay is detected using Fluorescent Imaging Plate Reader TETRA (FLIPR TETRA: manufactured by Molecular Devices). In some embodiments, the agonist activity of the test peptide is calculated assuming that the fluorescence value of the well containing only the dilution buffer is 0% and the fluorescence value of the well containing 10 nM human orexin A (Tocris) buffer is 100%.
(§2) Stable cell line generation. Obtainment of cells stably expressing either human orexin type 2 or human orexin type 1 receptor: to obtain a stable cell line the Orexin receptor cDNA was inserted into pcDNA3.1(+) plasmid vector and clones identified by G418 drug resistance selection. […] A single clone for OX2R-CHO and OX1R-CHO were grown in bulk and frozen to generate a cell bank for routine screening.
(§3) Measurement of orexin type 1 receptor agonist activity. Chinese hamster ovary (CHO) cells expressing human orexin type 1 receptor (hOX1R) were seeded in each well of 384 well black clear bottom plates (BD Flacon) at 10,000 cells per well and cultured for 24 h in an Ham's F12 (Gibco) medium containing 10% fetal calf serum (Sigma Aldrich) under the conditions of 37° C., 5% CO2. After removal of the medium, 50 μL of assay buffer 1 (0.1% bovine serum albumin (Sigma Aldrich), 20 mM HEPES (Molecular Dimensions), […] probenecid (Sigma Aldrich), 1× Calcium 5 dye (Molecular Devices) in Hank's balanced salt solution (Invitrogen)) was added, and the cells were incubated for 60 min under the conditions of 37° C., 5% CO2. A test peptide was dissolved in dimethyl sulfoxide (Sigma Aldrich) to 1 mM, and then diluted with assay buffer 2 (20 mM HEPES, Hank's balanced salt solution, 0.1% bovine serum albumin). For the reaction, a test peptide solution (10 μl) was added using Fluorescent Imaging Plate Reader TETRA (FLIPR TETRA: manufactured by Molecular Devices), a fluorescence value (excitation wavelength 488 nm, measurement wavelength 570 nm) of each well was measured every one second for 2 min, and the agonist activity was determined using the area of the fluorescence value as an indicator of intracellular Ca^2+ concentration. The agonist activity of the test peptide was calculated assuming that the fluorescence value of the well added with only the dilution buffer was 0% and the fluorescence value of the well added with 10 nM human orexin A (Tocris) buffer was 100%. As used herein, Emax indicates the value at 1 μM concentration when orexin A is converted to a full agonist (maximum value of agonist activity: 100%).

[2] = molecular target: T2, human orexin type 2 receptor (hOX2R) (Homo sapiens, UniProt O43614); experiment: Measurement of orexin type 2 receptor agonist activity (CHO cells, FLIPR TETRA intracellular Ca2+); type: cell-based
T2 construct: expressed in transfected cells
T2 sequence (O43614 1-444): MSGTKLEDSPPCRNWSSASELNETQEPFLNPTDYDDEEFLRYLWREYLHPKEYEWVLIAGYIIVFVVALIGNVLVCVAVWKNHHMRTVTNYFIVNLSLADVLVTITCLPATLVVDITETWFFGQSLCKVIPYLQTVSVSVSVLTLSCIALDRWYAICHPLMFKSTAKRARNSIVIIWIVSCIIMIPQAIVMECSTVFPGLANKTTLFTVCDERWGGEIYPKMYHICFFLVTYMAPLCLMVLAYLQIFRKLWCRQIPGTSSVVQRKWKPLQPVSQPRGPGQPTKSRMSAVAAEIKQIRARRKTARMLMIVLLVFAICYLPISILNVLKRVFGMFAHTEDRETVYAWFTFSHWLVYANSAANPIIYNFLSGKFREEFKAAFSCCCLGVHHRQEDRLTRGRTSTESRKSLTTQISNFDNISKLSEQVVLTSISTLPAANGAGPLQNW
Excerpt: as §1, §2
as §3, with “type 2” for “type 1”, “receptor (hOX2R)” for “receptor (hOX1R) were”

[3] = CHO cells expressing hOX1R, Ca2+ fluorescence, read-out: hOX1 pEC50 (converted)
[4] = CHO cells expressing hOX2R, Ca2+ fluorescence, read-out: hOX2 pEC50 (converted)

Structure (SMILES)	EC50 [1, 3]	EC50 [2, 4]	EC50 [1]	EC50 [2]
CCCC[C@H](NC(=O)[C@@H](NC(=O)[C@H](CC(C)C)NC(=O)[C@@H](NC(=O)CNC(=O)[C@H](C)NC(=O)[C@H](C)NC(=O)[C@H](Cc1c[nH]cn1)NC(=O)[C@H](CC(N)=O)NC(=O)CNC(=O)[C@H](CO)NC(=O)[C@@H](C)NC(=O)[C@@H](Cc1ccccc1)NC(=O)[C@@H](CC(C)C)NC(=O)[C@@H](N)CC(C)C)[C@@H](C)CC)[C@@H](C)O)C(N)=O [compound 14] (H-L[dL][dF][dA]SGNHAAGILT[Nle]-NH2)	> 10 nM	< 0.1 nM		
CCCCCC[C@H](NC(=O)[C@@H](NC(=O)[C@H](CC(C)C)NC(=O)[C@@H](NC(=O)CNC(=O)[C@@H](NC(=O)[C@H](C)NC(=O)[C@@H]1C[C@@H](O)CN1C(=O)[C@H](CC(N)=O)NC(=O)CN(CCc1ccccc1)C(=O)[C@H](CCCNC(=N)N)NC(=O)[C@@H]1C[C@@H](O)CN1C(=O)[C@@H]1C[C@@H](O)CN1C(=O)[C@@H]1C[C@@H](O)CN1)c1ccccc1)[C@@H](C)CC)[C@@H](C)O)C(N)=O [compound 9] (H-[Hyp][Hyp][Hyp]R[Gly(NCH2CH2Ph)]N[Hyp]A[Phg]GILT[Aoc(2)]-NH2)	> 10 nM	< 0.1 nM		
CCCCCC[C@H](NC(=O)[C@@H](NC(=O)[C@H](CC(C)C)NC(=O)[C@@H](NC(=O)CNC(=O)[C@@H](NC(=O)[C@H](C)NC(=O)[C@@H]1C[C@@H](O)CN1C(=O)[C@H](CC(N)=O)N(C)C(=O)CN(CCc1ccccc1)C(=O)[C@H](CCCNC(=N)N)NC(=O)[C@@H]1CCCN1C(=O)[C@@H](CCCCNC(=N)N)NC(=O)[C@H](CCC(N)=O)NC(=O)C(C)(C)C(=O)NCCc1cnc[nH]1)c1ccccc1)[C@@H](C)CC)[C@@H](C)O)C(N)=O [compound 5] ({Malonyl(2,2-Me2,histaminyl)}-Q[d(hArg)]PR[Gly(NCH2CH2Ph)][NMeN][Hyp]A[Phg]GILT[Aoc(2)]-NH2)			> 10 nM	< 0.1 nM
CCCC[C@H](NC(=O)[C@@H](NC(=O)[C@H](CC(C)C)NC(=O)[C@@H](NC(=O)CNC(=O)[C@H](C)NC(=O)[C@H](C)NC(=O)[C@H](Cc1c[nH]cn1)NC(=O)[C@H](CC(N)=O)NC(=O)CNC(=O)[C@H](CO)NC(=O)[C@@H](C)NC(=O)[C@@H](Cc1ccccc1)NC(=O)[C@H](CC(C)C)NC(=O)[C@@H](N)Cc1ccccc1)[C@@H](C)CC)[C@@H](C)O)C(N)=O [compound 13] (H-FL[dF][dA]SGNHAAGILT[Nle]-NH2)	> 10 nM	< 0.1 nM		
CCCC[C@H](NC(=O)[C@@H](NC(=O)[C@H](CC(C)C)NC(=O)[C@@H](NC(=O)CNC(=O)[C@@H](NC(=O)[C@H](C)NC(=O)[C@H](Cc1c[nH]cn1)NC(=O)[C@H](CC(N)=O)NC(=O)CNC(=O)[C@H](CO)NC(=O)[C@H](C)NC(=O)[C@H](Cc1c[nH]c2ccccc12)NC(=O)[C@@H](CC(C)C)NC(=O)[C@@H](N)CC(C)C)c1ccccc1)[C@@H](C)CC)[C@@H](C)O)C(N)=O [compound 11] (H-L[dL]WASGNHA[Phg]GILT[Nle]-NH2)	> 10 nM	< 0.1 nM		
CCCCCC[C@H](NC(=O)[C@@H](NC(=O)[C@H](CC(C)C)NC(=O)[C@@H](NC(=O)CNC(=O)[C@@H](NC(=O)[C@H](C)NC(=O)[C@@H]1C[C@@H](O)CN1C(=O)[C@H](CC(N)=O)NC(=O)CN(CCc1ccccc1)C(=O)[C@H](CCCNC(=N)N)NC(=O)[C@H](CCCNC(=N)N)NC(=O)[C@@H]1C[C@@H](O)CN1C(=O)[C@@H]1C[C@@H](O)CN1C(=O)[C@@H]1C[C@@H](O)CN1)c1ccccc1)[C@@H](C)CC)[C@@H](C)O)C(N)=O [compound 15] (H-[Hyp][Hyp][Hyp]RR[Gly(NCH2CH2Ph)]N[Hyp]A[Phg]GILT[Aoc(2)]-NH2)	1 to 10 nM	< 0.1 nM		
CCCCCC[C@H](NC(=O)[C@@H](NC(=O)[C@H](CC(C)C)NC(=O)[C@@H](NC(=O)CNC(=O)[C@@H](NC(=O)[C@H](C)NC(=O)[C@@H]1C[C@@H](O)CN1C(=O)[C@H](CC(N)=O)N(C)C(=O)CN(CCc1ccccc1)C(=O)[C@H](CCCNC(=N)N)NC(=O)[C@H](CCCNC(=N)N)NC(=O)[C@@H]1C[C@@H](O)CN1C(=O)[C@@H]1C[C@@H](O)CN1C(=O)[C@@H]1C[C@@H](O)CN1)c1ccccc1)[C@@H](C)CC)[C@@H](C)O)C(N)=O [compound 16] (H-[Hyp][Hyp][Hyp]RR[Gly(NCH2CH2Ph)][NMeN][Hyp]A[Phg]GILT[Aoc(2)]-NH2)	> 10 nM	< 0.1 nM		
CCCC[C@H](NC(=O)[C@@H](NC(=O)[C@H](CC(C)C)NC(=O)[C@@H](NC(=O)CNC(=O)[C@H](C)NC(=O)[C@H](C)NC(=O)[C@H](Cc1c[nH]cn1)NC(=O)[C@H](CC(N)=O)NC(=O)CNC(=O)[C@H](CO)NC(=O)[C@@H](C)NC(=O)[C@@H](Cc1ccccc1)NC(=O)[C@H](CC(C)C)NC(=O)[C@@H](N)CC(C)C)[C@@H](C)CC)[C@@H](C)O)C(N)=O [compound 12] (H-LL[dF][dA]SGNHAAGILT[Nle]-NH2)	> 10 nM	< 0.1 nM		
CCCC[C@H](NC(=O)[C@@H](NC(=O)[C@H](CC(C)C)NC(=O)[C@@H](NC(=O)CNC(=O)[C@@H](NC(=O)[C@H](C)NC(=O)[C@H](Cc1c[nH]cn1)NC(=O)[C@H](CC(N)=O)NC(=O)CNC(=O)[C@H](CO)NC(=O)[C@H](C)NC(=O)[C@H](Cc1c[nH]c2ccccc12)NC(=O)[C@@H](CC(C)C)NC(=O)[C@@H](N)Cc1ccccc1)c1ccccc1)[C@@H](C)CC)[C@@H](C)O)C(N)=O [compound 10] (H-F[dL]WASGNHA[Phg]GILT[Nle]-NH2)	> 10 nM	< 0.1 nM		
